In patent EP4745138A1, “THIO-GLUTARIMIDO ISOINDOLINONE DERIVATIVE, BIFUNCTIONAL PROTEIN DEGRADER CONTAINING SAME, AND USES THEREOF” (Gluetacs Therapeutics (Shanghai) Co., Ltd., priority 2023, dated 2025):
Where two headings read alike, the source gives them in different places.

How the values were obtained:
[1] = molecular target: T1, human Cereblon WT GST-tagged protein (Homo sapiens, UniProt Q96SW2); assay: CRBN-binding affinity, HTRF (CEREBLON BINDING kit); settings: for inhibition at 0.5 µM: read-out: Inhibition Rate at 0.5 µM (%); for inhibition at 2 µM: read-out: Inhibition Rate at 2 µM (%)
T1 construct: purchased CISBIO 64BDCRBNPEH
Summary of the method: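 Binding to GST-tagged Cereblon was probed by HTRF tracer displacement (thalidomide-red acceptor, anti-GST Eu donor), with compounds present at final 2 µM and 0.5 µM.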

ALK = molecular target: T2, ALK (Homo sapiens, UniProt Q96SW2+Q9HC35+Q9UM73); assay: Western blot, target protein degradation in H2228 Cell; assay type: cell-based; settings: substrate protein remaining %, treated at 500 nM and 50 nM, 24 hours
T2 construct: endogenous in cells; host or cells: H2228
Method: (§1) Conventional Western blot assay was performed to evaluate the effects of the compounds of the present disclosure on the expression of target proteins in cells.
(§2) (1) Cell Seeding and Protein Harvesting: The selected cells were processed according to the cell seeding procedure and protein harvesting procedure in Table II-2. Table II-2 Cell Seeding and Protein Harvesting Procedures
(§3) (2) To the collected supernatant, 5X SDS sample loading buffer was added, followed by denaturation at 95°C for 5 minutes. The denatured samples were then separated by SDS-PAGE electrophoresis on a polyacrylamide gel. Proteins were transferred to a nitrocellulose membrane (0.45 µm NC membrane), blocked with blocking buffer at room temperature for 1 hour, and subjected to antibody incubation and development procedures according to the antibody manufacturer's instructions (Cell Signaling Technology).
(§4) Half-Maximal Degradation Concentration value (the drug concentration required for degrading proteins by 50%, abbreviated as DC50) reads method: comparing the grayscale values of Western blot bands from drug-treated samples with those from blank DMSO-treated controls, and identifying the drug concentration range at which the grayscale value is half that of the DMSO-treated control bands.
(§5) DC50 values can be calculated using ImageJ software to measure grayscale values of Western blot bands from drug-treated samples. The concentration-response curve is fitted to estimate the drug concentration corresponding to half the grayscale value.
(§6) Target protein remaining (%) refers to the percentage of target protein remaining in cells after treatment with protein degrader compounds.
(§7) Calculation method for target protein remaining (%): Use ImageJ software to measure grayscale values of Western blot bands from drug (protein degrader)-treated samples. The grayscale value of drug-treated bands is divided by that of internal control protein bands, and the resulting quotient is normalized to obtain the relative percentage of remaining target protein after protein degrader treatment. Target protein degradation rate(%) = 1−target protein remaining(%). [formula]

SR = assay: Tumor cell proliferation inhibition (CellTiter-Meiluncell Luminescent Cell Viability Assay); settings: Homo sapiens, 96 hours, Table I-1, designed based on the ALK inhibitors, read-out: Inhibitory activity (IC50, nM) SR
Method: (§8) The tumor cells used herein were cultured in a cell culture medium listed in table 3 at 37°C in an incubator with 5% CO2. Prior to experimentation, all cell lines used were correctly identified by STR profiling, and tested negative for mycoplasma contamination using a mycoplasma detection kit through routine screenings. Table 3. Tumor cells and cell culture medium used in the present disclosure
(§9) The IC50 values of the compounds of the present disclosure (including the compounds in Table 1, Table 2, and Examples) were determined using the CellTiter-Meiluncell Luminescent Cell Viability Assay Kit from Dalian Meilun Biotech Co., Ltd. The detailed procedure is as follows: Tumor cells were seeded in 96-well cell culture plates at the densities specified in Table 4. On the following day, the test compounds of the present disclosure were subjected to serial dilution. […] Subsequently, 0.5 µL of the test compound dilution was transferred into the 96-well plate containing the cells, with each well containing 100 µL of cell culture medium. […] Into the 96-well plate, the diluted test compounds and corresponding detection reagents were added, resulting in final test compound concentrations of 500 nM and 10 nM, respectively. The experimental procedure is described below using the diluted 2 µM test compound as an example.
(§10) 0.5 µL of the aforementioned diluted compound of the present disclosure (including the compounds in Table 1, Table 2, and Examples) was added to the seeded cells in 100 µL of medium, yielding a final test compound concentration of 10 nM. After the cells were treated with the compounds of the present disclosure for a specified period, the cell viability assay reagent was added to the culture medium according to the kit's instructions to determine cell viability. […] All controls were treated using the same procedure as the compounds of the present disclosure. […] Seeding protocol and treatment time for tumor cells

HCC827 = assay: as above; settings: Homo sapiens, 96 hours, Table I-1, designed based on the ALK inhibitors, read-out: Inhibitory activity (IC50, nM) HCC827
Method: as §8, §9, §10

IKZF1 = molecular target: T3, IKZF1 (Homo sapiens, UniProt Q13422+Q96SW2); assay: Western blot, substrate protein degradation in hPBMC Cell; assay type: cell-based; settings: substrate protein remaining %, treated at 50 nM and 500 nM, 24 hours
T3 construct: endogenous in cells; host or cells: hPBMC
Method: as §1, §2, §3, §4, §5, §6, §7

IKZF3 = molecular target: T4, IKZF3 (Homo sapiens, UniProt Q96SW2+Q9UKT9); assay: as above; assay type: cell-based; settings: substrate protein remaining %, treated at 50 nM and 500 nM, 24 hours
T4 construct: endogenous in cells; host or cells: hPBMC
Method: as §1, §2, §3, §4, §5, §6, §7

CK1α = molecular target: T5, CK1α (Homo sapiens, UniProt P48729+Q96SW2); assay: as above; assay type: cell-based; settings: substrate protein remaining %, treated at 50 nM and 500 nM, 24 hours
T5 construct: endogenous in cells; host or cells: hPBMC
Method: as §1, §2, §3, §4, §5, §6, §7

IKZF2 = molecular target: T6, IKZF2 (Homo sapiens, UniProt Q96SW2+Q9UKS7); assay: as above; assay type: cell-based; settings: substrate protein remaining %, treated at 50 nM and 500 nM, 24 hours
T6 construct: endogenous in cells; host or cells: hPBMC
Method: as §1, §2, §3, §4, §5, §6, §7

GSPT1 = molecular target: T7, GSPT1 (Homo sapiens, UniProt P15170+Q96SW2); assay: as above; assay type: cell-based; settings: substrate protein remaining %, treated at 50 nM and 500 nM, 24 hours
T7 construct: endogenous in cells; host or cells: hPBMC
Method: as §1, §2, §3, §4, §5, §6, §7

WEE1 = assay: as above; assay type: cell-based, Human; settings: substrate protein remaining %, treated at 50 nM and 500 nM, 24 hours
Method: as §1, §2, §3, §4, §5, §6, §7

MM.1S = assay: Tumor cell proliferation inhibition (CellTiter-Meiluncell Luminescent Cell Viability Assay); assay type: cell-based; settings: Homo sapiens, MM1.S, MM.1S, 96 hours; for inhibition at 0.01 µM: 10 nM, read-out: Inhibition Rate at 10 nM (%); for inhibition at 0.5 µM: 500 nM, read-out: Inhibition Rate at 500 nM (%)
Summary of the method: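 Following overnight seeding, tumor cells received serial compound dilutions to final levels that included 10 nM and 500 nM. Viability was assessed by luminescence at the end of the specified exposure time. Cultures were kept at 37°C with 5% CO2.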

Tau = assay: Western blot, target protein degradation in H4 Cell; assay type: cell-based; settings: substrate protein remaining %, treated at 500 nM and 50 nM, 24 hours
Method: as §1, §2, §3, §4, §5, §6
(§11) Calculation method for target protein remaining (%): Use ImageJ software to measure grayscale values of Western blot bands from drug (protein degrader)-treated samples. The grayscale value of drug-treated bands is divided by that of internal control protein bands, and the resulting quotient is normalized to obtain the relative percentage of remaining target protein after protein degrader treatment. […]

AKT = assay: Western blot, target protein degradation in hPBMC Cell; assay type: cell-based, Human; settings: substrate protein remaining %, treated at 50 nM and 500 nM, 24 hours
Method: as §1, §2, §3, §4, §5, §6, §11

[2] = Table I-16, compounds of Formula (II)

T1 sequence (Q96SW2 whole entry): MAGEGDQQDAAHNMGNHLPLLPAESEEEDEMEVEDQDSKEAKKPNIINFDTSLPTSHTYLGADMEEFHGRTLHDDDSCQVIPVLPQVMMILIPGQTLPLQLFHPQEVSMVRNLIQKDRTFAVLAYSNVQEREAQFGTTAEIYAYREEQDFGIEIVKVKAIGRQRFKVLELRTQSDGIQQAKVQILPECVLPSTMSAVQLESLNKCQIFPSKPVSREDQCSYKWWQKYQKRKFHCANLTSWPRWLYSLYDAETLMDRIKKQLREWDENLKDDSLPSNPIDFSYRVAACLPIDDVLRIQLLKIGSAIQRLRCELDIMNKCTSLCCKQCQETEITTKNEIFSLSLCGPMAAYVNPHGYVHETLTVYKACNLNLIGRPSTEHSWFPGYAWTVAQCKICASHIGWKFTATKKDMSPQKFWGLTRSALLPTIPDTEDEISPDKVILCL
T2 sequence (Q9HC35+Q9UM73 fused): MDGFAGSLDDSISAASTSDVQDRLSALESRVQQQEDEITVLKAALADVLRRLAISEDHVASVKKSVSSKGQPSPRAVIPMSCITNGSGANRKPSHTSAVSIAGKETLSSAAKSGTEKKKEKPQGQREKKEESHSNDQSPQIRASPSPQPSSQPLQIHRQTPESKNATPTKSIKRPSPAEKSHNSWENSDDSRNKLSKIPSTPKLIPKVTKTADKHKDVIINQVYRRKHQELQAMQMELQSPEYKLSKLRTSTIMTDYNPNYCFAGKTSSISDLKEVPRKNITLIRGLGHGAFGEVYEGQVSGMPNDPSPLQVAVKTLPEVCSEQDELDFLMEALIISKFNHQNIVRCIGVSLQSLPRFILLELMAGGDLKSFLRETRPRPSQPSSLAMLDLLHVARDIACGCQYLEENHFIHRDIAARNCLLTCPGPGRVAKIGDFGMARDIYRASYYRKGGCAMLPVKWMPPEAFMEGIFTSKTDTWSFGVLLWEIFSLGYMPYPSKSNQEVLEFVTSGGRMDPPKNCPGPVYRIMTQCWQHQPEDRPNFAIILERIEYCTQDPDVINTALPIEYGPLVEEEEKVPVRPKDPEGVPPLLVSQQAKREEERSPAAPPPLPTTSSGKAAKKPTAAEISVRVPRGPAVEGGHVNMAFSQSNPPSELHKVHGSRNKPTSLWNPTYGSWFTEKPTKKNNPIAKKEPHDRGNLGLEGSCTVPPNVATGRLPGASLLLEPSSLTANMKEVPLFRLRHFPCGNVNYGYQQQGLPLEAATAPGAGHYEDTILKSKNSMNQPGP
T2 sequence (Q96SW2 whole entry): as the sequence (Q96SW2 whole entry) above
T2 sequence (Q16531 whole entry partner): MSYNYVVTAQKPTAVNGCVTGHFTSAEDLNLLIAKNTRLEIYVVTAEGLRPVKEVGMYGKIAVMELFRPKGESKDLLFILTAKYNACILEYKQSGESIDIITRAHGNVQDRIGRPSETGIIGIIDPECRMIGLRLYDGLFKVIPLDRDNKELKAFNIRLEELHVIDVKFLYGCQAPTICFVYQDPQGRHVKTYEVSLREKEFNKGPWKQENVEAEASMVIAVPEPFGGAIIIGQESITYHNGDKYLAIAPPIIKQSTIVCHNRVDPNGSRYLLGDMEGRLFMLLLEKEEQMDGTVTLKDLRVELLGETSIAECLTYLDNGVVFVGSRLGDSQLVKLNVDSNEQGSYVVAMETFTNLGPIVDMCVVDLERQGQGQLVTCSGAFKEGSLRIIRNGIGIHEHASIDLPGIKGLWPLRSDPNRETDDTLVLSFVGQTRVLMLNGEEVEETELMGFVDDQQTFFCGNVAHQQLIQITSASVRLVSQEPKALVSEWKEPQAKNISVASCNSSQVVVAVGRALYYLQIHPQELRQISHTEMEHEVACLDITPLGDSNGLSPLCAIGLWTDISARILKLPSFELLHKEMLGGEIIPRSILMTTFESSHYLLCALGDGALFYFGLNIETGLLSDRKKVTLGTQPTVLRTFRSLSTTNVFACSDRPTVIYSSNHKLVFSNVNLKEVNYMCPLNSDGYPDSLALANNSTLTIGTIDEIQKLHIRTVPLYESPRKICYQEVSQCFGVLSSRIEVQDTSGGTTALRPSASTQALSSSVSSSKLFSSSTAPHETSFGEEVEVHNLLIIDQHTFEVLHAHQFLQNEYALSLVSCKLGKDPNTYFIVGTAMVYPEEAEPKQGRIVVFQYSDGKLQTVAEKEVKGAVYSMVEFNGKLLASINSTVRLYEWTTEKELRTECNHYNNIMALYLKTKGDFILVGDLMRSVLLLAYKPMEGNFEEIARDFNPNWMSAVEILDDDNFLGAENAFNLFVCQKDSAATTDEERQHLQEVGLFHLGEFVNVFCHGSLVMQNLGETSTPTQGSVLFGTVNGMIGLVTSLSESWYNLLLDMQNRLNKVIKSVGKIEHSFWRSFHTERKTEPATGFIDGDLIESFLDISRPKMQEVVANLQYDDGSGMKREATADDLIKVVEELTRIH
T4 sequence (Q9UKT9 whole entry): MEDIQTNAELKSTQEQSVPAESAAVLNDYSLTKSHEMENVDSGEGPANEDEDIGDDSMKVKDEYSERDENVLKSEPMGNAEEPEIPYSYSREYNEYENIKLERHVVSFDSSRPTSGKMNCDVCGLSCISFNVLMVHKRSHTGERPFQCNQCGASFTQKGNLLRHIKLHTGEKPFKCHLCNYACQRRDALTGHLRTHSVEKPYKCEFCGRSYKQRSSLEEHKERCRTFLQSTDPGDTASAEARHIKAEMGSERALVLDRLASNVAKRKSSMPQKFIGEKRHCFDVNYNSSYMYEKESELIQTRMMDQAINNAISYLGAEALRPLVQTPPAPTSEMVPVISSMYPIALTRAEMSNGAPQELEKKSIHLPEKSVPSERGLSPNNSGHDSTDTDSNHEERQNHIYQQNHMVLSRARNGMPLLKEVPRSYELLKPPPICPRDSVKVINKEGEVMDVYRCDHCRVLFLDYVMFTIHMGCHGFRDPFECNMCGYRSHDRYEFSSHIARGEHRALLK
T4 sequence (Q96SW2 whole entry): as the sequence (Q96SW2 whole entry) above
T4 sequence (Q16531 whole entry partner): as the sequence (Q16531 whole entry partner) above
T6 sequence (Q9UKS7 whole entry): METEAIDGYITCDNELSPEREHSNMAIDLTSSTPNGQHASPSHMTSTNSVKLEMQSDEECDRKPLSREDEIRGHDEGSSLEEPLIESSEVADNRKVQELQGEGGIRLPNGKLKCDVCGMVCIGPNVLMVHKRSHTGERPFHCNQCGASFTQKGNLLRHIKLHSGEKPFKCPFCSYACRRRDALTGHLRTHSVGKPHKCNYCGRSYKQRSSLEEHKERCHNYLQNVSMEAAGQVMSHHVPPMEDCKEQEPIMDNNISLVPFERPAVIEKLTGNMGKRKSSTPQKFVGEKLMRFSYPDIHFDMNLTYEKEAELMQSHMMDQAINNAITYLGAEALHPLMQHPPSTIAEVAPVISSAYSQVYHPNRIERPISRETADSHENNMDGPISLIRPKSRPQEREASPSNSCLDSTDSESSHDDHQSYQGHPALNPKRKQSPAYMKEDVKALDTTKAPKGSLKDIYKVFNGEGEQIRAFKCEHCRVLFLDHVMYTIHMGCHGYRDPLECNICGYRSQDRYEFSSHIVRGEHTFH
T6 sequence (Q96SW2 whole entry): as the sequence (Q96SW2 whole entry) above
T6 sequence (Q16531 whole entry partner): as the sequence (Q16531 whole entry partner) above
T7 sequence (P15170 whole entry): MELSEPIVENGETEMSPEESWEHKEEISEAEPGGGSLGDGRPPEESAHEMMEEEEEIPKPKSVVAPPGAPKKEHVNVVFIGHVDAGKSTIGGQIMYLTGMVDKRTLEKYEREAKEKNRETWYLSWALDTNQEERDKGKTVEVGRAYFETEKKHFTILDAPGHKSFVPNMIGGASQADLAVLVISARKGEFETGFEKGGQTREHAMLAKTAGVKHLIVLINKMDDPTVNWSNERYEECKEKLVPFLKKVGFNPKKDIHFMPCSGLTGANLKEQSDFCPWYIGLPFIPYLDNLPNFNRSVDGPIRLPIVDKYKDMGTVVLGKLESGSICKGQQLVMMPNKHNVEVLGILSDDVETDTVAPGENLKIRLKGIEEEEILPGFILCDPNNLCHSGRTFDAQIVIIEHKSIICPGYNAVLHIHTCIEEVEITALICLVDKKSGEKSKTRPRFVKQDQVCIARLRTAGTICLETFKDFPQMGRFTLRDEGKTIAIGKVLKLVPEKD
T7 sequence (Q96SW2 whole entry): as the sequence (Q96SW2 whole entry) above
T7 sequence (Q16531 whole entry partner): as the sequence (Q16531 whole entry partner) above
T5 sequence (P48729 whole entry): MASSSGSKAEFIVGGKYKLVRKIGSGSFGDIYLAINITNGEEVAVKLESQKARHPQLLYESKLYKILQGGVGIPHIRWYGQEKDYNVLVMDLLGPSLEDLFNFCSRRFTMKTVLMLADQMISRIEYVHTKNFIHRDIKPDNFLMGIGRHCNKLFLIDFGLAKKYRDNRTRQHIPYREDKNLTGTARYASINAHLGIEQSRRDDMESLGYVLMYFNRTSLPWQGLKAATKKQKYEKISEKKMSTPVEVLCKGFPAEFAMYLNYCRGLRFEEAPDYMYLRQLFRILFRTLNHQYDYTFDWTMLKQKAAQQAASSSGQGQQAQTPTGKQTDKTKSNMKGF
T5 sequence (Q96SW2 whole entry): as the sequence (Q96SW2 whole entry) above
T5 sequence (Q16531 whole entry partner): as the sequence (Q16531 whole entry partner) above

CCc1cc2c(cc1N1CCC(N3CCN(Cc4ccc5c(c4)C(=S)N(C4CCC(=O)NC4=O)C5)CC3)CC1)C(C)(C)c1[nH]c3cc(C#N)ccc3c1C2=O (centres unmarked) [GT-05030, 8-(4-(4-((2-(2,6-dioxopiperidin-3-yl)-3-thioxoisoindolin-5-yl)methyl)piperazin-1-yl)piperidin-1-yl)-9-ethyl-6,6-dimethyl-11-oxo-6,11-dihydro-5H-benzo[b]carbazole-3-carbonitrile]
inhibition at 0.5 µM [1]: 60 to 80% | inhibition at 2 µM [1]: 60 to 80% | Degradation of substrate protein ALK (ALK): A (0% ≤ substrate protein remaining % ≤ 80%) | IC50 (SR): 10 to 20 nM | IC50 (HCC827): 500 to 1000 nM

CCc1cc2c(cc1N1CCC(N3CCN(Cc4ccc5c(c4)CN(C4CCC(=O)NC4=O)C5=S)CC3)CC1)C(C)(C)c1[nH]c3cc(C#N)ccc3c1C2=O (centres unmarked) [GT-05097, 8-(4-(4-((2-(2,6-dioxopiperidin-3-yl)-1-thioxoisoindolin-5-yl)methyl)piperazin-1-yl)piperidin-1-yl)-9-ethyl-6,6-dimethyl-11-oxo-6,11-dihydro-5H-benzo[b]carbazole-3-carbonitrile]
inhibition at 0.5 µM [1]: 40 to 53% | inhibition at 2 µM [1]: 80 to 100% | Degradation of substrate protein ALK (ALK): A (0% ≤ substrate protein remaining % ≤ 80%) | IC50 (SR): 20 to 30 nM

O=C1CCC(N2Cc3c(CO)cccc3C2=S)C(=O)N1 (centres unmarked) [GT-06981, 3-(4-(hydroxymethyl)-1-thioxoisoindolin-2-yl)piperidine-2,6-dione]
IC50 ([1]; CRBN binding, HTRF): < 0.5 µM | Degradation of substrate protein IKZF1 (IKZF1): B (80%< substrate protein remaining %≤ 100%) | Degradation of substrate protein IKZF3 (IKZF3): A (0% ≤ substrate protein remaining % ≤ 80%) | Degradation of substrate protein CK1α (CK1α): B (80%< substrate protein remaining %≤ 100%) | Degradation of substrate protein IKZF2 (IKZF2): B (80%< substrate protein remaining %≤ 100%) | Degradation of substrate protein GSPT1 (GSPT1): B (80%< substrate protein remaining %≤ 100%) | Degradation of substrate protein WEE1 (WEE1): B (80%< substrate protein remaining %≤ 100%) | inhibition at 0.01 µM (MM.1S; [2]): 20 to 30% | inhibition at 0.5 µM (MM.1S; [2]): 35 to 40%

CC(=O)N1CCCN(c2nc(NCCc3cccs3)nc(N3CCN(Cc4ccc5c(c4)CN(C4CCC(=O)NC4=O)C5=S)CC3)n2)CC1 (centres unmarked) [GT-08867, 3-(5-((4-(4-(4-acetyl-1,4-diazepan-1-yl)-6-((2-(thiophen-2-yl)ethyl)amino)-1,3,5-triazin-2-yl)piperazin-1-yl)methyl)-1-thioxoisoindolin-2-yl)piperidine-2,6-dione]
inhibition at 0.5 µM [1]: 53 to 60% | inhibition at 2 µM [1]: 80 to 100% | Degradation of substrate protein Tau (Tau): A (0% ≤ substrate protein remaining % ≤ 80%)

Cn1ncc(Cl)c1-c1cc(C(=O)N[C@H](CNCc2ccc3c(c2)CN(C2CCC(=O)NC2=O)C3=S)Cc2ccc(F)c(F)c2)oc1Cl (stereo partly drawn) [GT-08895, 5-chloro-4-(4-chloro-1-methyl-1H-pyrazol-5-yl)-N-((2S)-1-(3,4-difluorophenyl)-3-(((2-(2,6-dioxopiperidin-3-yl)-1-thioxoisoindolin-5-yl)methyl)amino)propan-2-yl)furan-2-carboxamide]
inhibition at 0.5 µM [1]: 30 to 40% | inhibition at 2 µM [1]: 60 to 80% | Degradation of substrate protein AKT (AKT): A (0% ≤ substrate protein remaining % ≤ 80%) | inhibition at 0.01 µM (MM.1S; Table I-14, AKT inhibitors): 30 to 40% | inhibition at 0.5 µM (MM.1S; Table I-14, AKT inhibitors): 50 to 60%

Cn1ncc(Cl)c1-c1cc(C(=O)N[C@@H](Cc2ccc(F)c(F)c2)CN2CCN(Cc3ccc4c(c3)CN(C3CCC(=O)NC3=O)C4=S)CC2)oc1Cl (stereo partly drawn) [GT-08896, 5-chloro-4-(4-chloro-1-methyl-1H-pyrazol-5-yl)-N-((2S)-1-(3,4-difluorophenyl)-3-(4-((2-(2,6-dioxopiperidin-3-yl)-1-thioxoisoindolin-5-yl)methyl)piperazin-1-yl)propan-2-yl)furan-2-carboxamide]
inhibition at 0.5 µM [1]: 53 to 60% | inhibition at 2 µM [1]: 80 to 100% | Degradation of substrate protein AKT (AKT): A (0% ≤ substrate protein remaining % ≤ 80%)

Cn1ncc(Cl)c1-c1cc(C(=O)N[C@@H](Cc2cccc(F)c2)CN2CCN(Cc3ccc4c(c3)CN(C3CCC(=O)NC3=O)C4=S)CC2)sc1Cl (stereo partly drawn) [GT-08897, 5-chloro-4-(4-chloro-1-methyl-1H-pyrazol-5-yl)-N-((2S)-1-(4-((2-(2,6-dioxopiperidin-3-yl)-1-thioxoisoindolin-5-yl)methyl)piperazin-1-yl)-3-(3-fluorophenyl)propan-2-yl)thiophene-2-carboxamide]
inhibition at 0.5 µM [1]: 60 to 80% | inhibition at 2 µM [1]: 60 to 80% | Degradation of substrate protein AKT (AKT): A (0% ≤ substrate protein remaining % ≤ 80%)

O=C1CCC(N2Cc3cc(CN4CCN(c5ccc(-c6ccc7c8cnccc8n(C(F)F)c7c6)cn5)CC4)ccc3C2=S)C(=O)N1 (centres unmarked) [GT-08979, 3-(5-((4-(5-(5-(difluoromethyl)-5H-pyrido[4,3-b]indol-7-yl)pyridin-2-yl)piperazin-1-yl)methyl)-1-thioxoisoindolin-2-yl)piperidine-2,6-dione]
inhibition at 0.5 µM [1]: 53 to 60% | inhibition at 2 µM [1]: 60 to 80% | Degradation of substrate protein Tau (Tau): A (0% ≤ substrate protein remaining % ≤ 80%)

O=C1CCC(N2Cc3cc(CN4CCN(c5ccn6c(n5)nc5ccccc56)CC4)ccc3C2=S)C(=O)N1 (centres unmarked) [GT-08981, 3-(5-((4-(benzo[4,5]imidazo[1,2-a]pyrimidin-2-yl)piperazin-1-yl)methyl)-1-thioxoisoindolin-2-yl)piperidine-2,6-dione]
inhibition at 0.5 µM [1]: 60 to 80% | inhibition at 2 µM [1]: 80 to 100% | Degradation of substrate protein Tau (Tau): A (0% ≤ substrate protein remaining % ≤ 80%)
